Laboratory results reported in EP3714904B1, “IMINODIACETIC ACID SUBSTITUTED CYCLODEXTRINS AS POTENTIATORS OF BETA-LACTAM ANTIBIOTICS” (NATIONAL CENTER FOR SCIENTIFIC RESEARCH "DEMOKRITOS" (NCSRD), priority 2019, dated 2020).

What was measured:
[1] = test system: NDM-1 producing K. pneumoniae strain LA26; assay: Murine sepsis model: single dose treatment scheme-2; format: in vivo, CD-1 mice; conditions: single dose 10 mg/kg meropenem + 120 mg/kg β-IDACYD
Protocol: Example 9. […] Blood samples were collected at 0, 6 and 24 hours after injection of a single dose of antibiotic (4 infected animals for each timepoint), were serially diluted in normal saline (10^-1 to 10^-9) and plated on MH agar plates which were incubated for 16 hours at 37°C for determination of viable organisms. […] The resulting 3.0log10 reduction in the blood bacterial load in the presence of 120 mg/kg of the inhibitor β-IDACYD compared to the antibiotic itself confirmed the high repotentiation abilities of the inhibitor to carbapenems even for suboptimal antibiotic doses. […] Treatment was given in a form of a single shot 2h after infection and blood was drawn 0h, 6h and 24h post treatment initiation. All groups were of n=10. Error bars are indicative of SEM (n=2 replicates).

[2] = test system: NDM-1 producing K. pneumoniae clinical strain LA 26; assay: Murine sepsis model: single dose treatment scheme-1; format: in vivo, CD-1 mice; conditions: single dose 30 mg/kg meropenem + 120 mg/kg β-IDACYD
Protocol: Example 8. In-vivo murine sepsis model: Single dose treatment scheme-1: Neutropenic 7-8 weeks old CD-1 female mice weighing 29 to 32 grams were infected interperitoneally with a lethal dose (10^7 CFU) of the NDM-1 producing K. pneumoniae clinical strain LA 26 as described previously. […] The meropenem/ β-IDACYD combination was administrated in all dosing schemes simultaneously. Blood samples were taken 0, 6, 24 hours and 3 days after injection of a single dose of antibiotic (five infected animals for each timepoint) and were serially diluted in normal saline (10^-1 to 10^-9) and plated on MH agar plates which were incubated for 16 hours at 37 °C for determination of viable organisms. All mice were euthanised 3 days post infection and spleen and liver were harvested. Organs were placed into 1 mL of normal saline on ice and then homogenised. Organ homogenates were then serially diluted in normal saline (10^-1 to 10^-9) and plated on MH agar plates for CFU enumeration. In the absence of therapy 30% of mice remained alive 70 hours post infection. […] The bacterial burden in the blood 70 hours post treatment was relieved by 4.8log10 in the presence of 120 mg/kg of β-IDACYD compared to that of the antibiotic monotherapy. […] In Fig. 7 is shown the bacterial load (CFU/mL) and survival percentage of CD-1 mice infected with a lethal dose (10^7 CFU) of NDM-1 producing K. pneumoniae strain LA26. […] Treatment was given in a form of a single shot 2h after infection and blood was drawn 0h, 6h, 24h and 70h post treatment initiation. All groups were of n=10. Error bars are indicative of SEM (n=2 replicates).

[3] = target: T1, MBL containing crude enzyme preparation (Kpn LA-26 NDM-1) (Klebsiella pneumoniae, UniProt C7C422); assay: 1H NMR monitoring of meropenem hydrolysis by MBL crude enzyme preparation; format: biochemical; conditions: meropenem 0.18 mM, β-IDACYD 1.9 mM, over a 12 h period
T1 construct: an MBL containing crude enzyme preparation (Kpn LA-26 NDM-1, 485 µL); endogenous in cells; host or cells: Klebsiella pneumoniae clinical strain LA-26 (crude enzyme preparation)

[4] = test system: NDM producing K. pneumoniae clinical strain LA26; assay: Murine sepsis model: 2-hour intervals treatment scheme; format: in vivo, CD-1 mice; conditions: 30 mg/kg meropenem + 20 mg/kg β-IDACYD every 2 h for 24 h
Protocol: Example 7. […] The animals were rendered neutropenic (<100 neutrophils/mm^3) by intraperitoneal injection of 150 and 100 mg/kg of cyclophosphamide at day -4 and day -1, respectively, before infection. […] The meropenem/ β-IDACYD combination was administrated in all dosing schemes simultaneously. […] Blood samples were taken 0, 6, 24 hours and 7 days after injection of a single dose of antibiotic (five infected animals for each timepoint) were serially diluted in normal saline (10^-1 to 10^-9) and plated on MH agar plates which were incubated for 16 hours at 37°C for determination of viable organisms. All mice that were alive were euthanised 7 days post infection and spleen and liver were harvested. The organs were placed into 1 mL of normal saline on ice and then homogenised. The organ homogenates were then serially diluted in normal saline (10^-1 to 10^-9) and plated on MH agar for CFU enumeration. Without therapy 90% of mice succumbed to the infection within 24 hours. […] Finally, the bacterial load in the spleen was relieved by 4.2 log10 compared to that of the antibiotic itself. In Fig.6 is shown the bacterial load (CFU/mL) (A) and survival percentage (B) of CD-1 mice infected with a lethal dose (10^7 CFU) of NDM-1 producing K. pneumoniae strain LA26. […] Treatment (initiated at 2 hours post infection) was given every 2h for a 24h period and blood was drawn 0 h, 6 h, 24 h and 140 h post treatment initiation. All groups were of n=10. Spleen and liver (C) from n=5 mice were also removed at 140 h post-treatment initiation the bacterial load [log (CFU/organ)] was determined. Error bars are indicative of SEM (n=2 replicates).

[5] = test system: Klebsiella pneumoniae; assay: MIC of β-lactams alone or with 50 µM IDACYD against clinical isolates; format: cell-based
Protocol: Further the in-vitro inhibitory activity of IDACYDs was tested against highly resistant pathogens. […] Table 2: Collection of clinical isolates used for in-vitro evaluation

T1 sequence (C7C422 29-270 limits assumed): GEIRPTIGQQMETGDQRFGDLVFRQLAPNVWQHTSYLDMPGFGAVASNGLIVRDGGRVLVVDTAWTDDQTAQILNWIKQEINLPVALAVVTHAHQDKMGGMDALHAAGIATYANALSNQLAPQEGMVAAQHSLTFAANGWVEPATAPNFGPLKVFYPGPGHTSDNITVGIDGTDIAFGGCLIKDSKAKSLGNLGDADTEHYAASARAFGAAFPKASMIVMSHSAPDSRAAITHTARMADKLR

Compound: CO[C@@H]1[C@@H](OC)[C@H]2O[C@H]3[C@H](OC)[C@@H](OC)[C@@H](O[C@H]4[C@H](OC)[C@@H](OC)[C@@H](O[C@H]5[C@H](OC)[C@@H](OC)[C@@H](O[C@H]6[C@H](OC)[C@@H](OC)[C@@H](O[C@H]7[C@H](OC)[C@@H](OC)[C@@H](O[C@H]8[C@H](OC)[C@@H](OC)[C@@H](O[C@@H]1[C@@H](CN(CC(=O)O)CC(=O)O)O2)O[C@@H]8CN(CC(=O)O)CC(=O)O)O[C@@H]7CN(CC(=O)O)CC(=O)O)O[C@@H]6CN(CC(=O)O)CC(=O)O)O[C@@H]5CN(CC(=O)O)CC(=O)O)O[C@@H]4CN(CC(=O)O)CC(=O)O)O[C@@H]3CN(CC(=O)O)CC(=O)O [β-IDACYD]
- reduction in the blood bacterial load compared to the antibiotic itself [1]: 3.0 log10
- mice rescued (survival) ([1]; within 48 h): 50%
- reduction of bacterial load in the liver [2]: 1.4 log10
- reduction of bacterial load in the spleen [2]: 3.8 log10
- mice rescued (survival) ([2]; 70 hours): 60%
- reduction of bacterial burden in the blood compared to antibiotic monotherapy ([2]; 70 hours post treatment): 4.8 log10
- hydrolysis of meropenem in the presence of β-IDACYD [3]: no signals of hydrolysis of the drug could be observed
- mice protected (survival) ([4]; intraperitoneal, 140 hours): 90%
- reduction of the bacterial load in the spleen compared to the antibiotic itself ([4]; 140 h): 4.2 log10
- reduction of the bacterial load in blood compared to meropenem monotherapy ([4]; 140 hours post treatment initiation): 4.0 log10
- Imipenem /50µM β-IDACYD MIC ([5]; isolate 6/100 (VIM)): 1 µg/mL
- Meropenem /50µM β-IDACYD MIC ([5]; isolate 6/100 (VIM)): 1 µg/mL
- Imipenem /50µM β-IDACYD MIC ([5]; isolate 2489 (NDM)): 0.5 µg/mL
- Meropenem /50µM β-IDACYD MIC ([5]; isolate 2489 (NDM)): 1 µg/mL
- Imipenem /50µM β-IDACYD MIC ([5]; isolate 2685 (VIM, CMY, CTXM)): 0.5 µg/mL
- Meropenem /50µM β-IDACYD MIC ([5]; isolate 2685 (VIM, CMY, CTXM)): <0.25 µg/mL
- Ceftazidime/ 50µM β-IDACYD MIC ([5]; isolate ALX-47 (OXA-48,CTX-M)): >256 µg/mL
- Imipenem /50µM β-IDACYD MIC ([5]; isolate ALX-47 (OXA-48,CTX-M)): 4 µg/mL
- Meropenem /50µM β-IDACYD MIC ([5]; isolate ALX-47 (OXA-48,CTX-M)): 4 µg/mL
- Imipenem /50µM β-IDACYD MIC ([5]; isolate ESDY-1780 (VIM, KPC)): 8 µg/mL
- Meropenem /50µM β-IDACYD MIC ([5]; isolate ESDY-1780 (VIM, KPC)): 32 µg/mL
- Imipenem /50µM β-IDACYD MIC ([5]; isolate ESDY-2681 (VIM-27)): <0.125 µg/mL
- Meropenem /50µM β-IDACYD MIC ([5]; isolate ESDY-2681 (VIM-27)): <0.25 µg/mL
- Ceftazidime/ 50µM β-IDACYD MIC ([5]; isolate ESDY-5742 (IMP)): 1 µg/mL
- Imipenem /50µM β-IDACYD MIC ([5]; isolate ESDY-5742 (IMP)): <0.125 µg/mL
- Meropenem /50µM β-IDACYD MIC ([5]; isolate ESDY-5742 (IMP)): <0.25 µg/mL
- Imipenem /50µM β-IDACYD MIC ([5]; isolate EY-20S (CMY, SHV)): 2 µg/mL
- Meropenem /50µM β-IDACYD MIC ([5]; isolate EY-20S (CMY, SHV)): 4 µg/mL
- Imipenem /50µM β-IDACYD MIC ([5]; isolate IT-17829 (CTXM, SHV)): 0.5 µg/mL
- Meropenem /50µM β-IDACYD MIC ([5]; isolate IT-17829 (CTXM, SHV)): 32 µg/mL
- Imipenem /50µM β-IDACYD MIC ([5]; isolate L078/11 (KPC)): 16 µg/mL
- Meropenem /50µM β-IDACYD MIC ([5]; isolate L078/11 (KPC)): 64 µg/mL
- Imipenem /50µM β-IDACYD MIC ([5]; isolate LA-26 (NDM)): <0.125 µg/mL
- Meropenem /50µM β-IDACYD MIC ([5]; isolate LA-26 (NDM)): <0.25 µg/mL
- Imipenem /50µM β-IDACYD MIC ([5]; isolate LA-27 (NDM, CTXM)): <0.125 µg/mL
- Meropenem /50µM β-IDACYD MIC ([5]; isolate LA-27 (NDM, CTXM)): <0.25 µg/mL
- Ceftazidime/ 50µM β-IDACYD MIC ([5]; isolate LA-28 (NDM, CTXM)): 32 µg/mL
- Imipenem /50µM β-IDACYD MIC ([5]; isolate LA-28 (NDM, CTXM)): <0.125 µg/mL
- Meropenem /50µM β-IDACYD MIC ([5]; isolate LA-28 (NDM, CTXM)): <0.25 µg/mL
- Imipenem /50µM β-IDACYD MIC ([5]; isolate LA-34 (VIM, CMY), first entry of Table 3): <0.5 µg/mL
